pIC50: −log10 of the molar value. “Also recorded” adds a separate entry of the source.
Legend:
[1] = test system: T. vaginalis trophozoites; experiment: Kinetic growth curve of T. vaginalis in presence of compounds; assay type: cell-based, Trichomonas vaginalis; conditions: compound at its IC50, monitored up to 96 h
Method: The trophozoites were incubated at the IC50 values for each compound. The viability and number of trophozoites were monitored at 6, 12, 18, 24, 48, 72, and 96 h with trypan blue (0.4%) (1:1, v/v) and XTT assays.
To understand the antiparasitic activities of the compounds against T. vaginalis cultures, we produced a curve of the kinetic growth of T. vaginalis as a function of time. […] Trophozoites were observed via light microscopy, and their growth and viability were evaluated at 6, 12, 24, 48, 72, and 96 h.

CaCo-2 cells = experiment: In vitro cytotoxicity assay (XTT), Caco-2; conditions: CC50 CaCo-2 / IC50 trophozoites
Method: (§1) Concentration–response curves for the viability of (A) Caco-2 and (B) HT29 cells treated with increasing concentrations of AGR compounds. […] Cell viability was determined using trypan blue dye exclusion (0.4%) (1:1, v/v) in a Neubauer chamber, as well as an XTT proliferation assay. Values represent the mean ± standard deviation of three independent experiments.
(§2) The Caco-2 and HT29 cell lines were provided by Luz Maria Rocha Ramirez from Hospital Infantil de México Federico Gómez, Secretaría de Salud. Cells were cultured in DMEM medium supplemented with 10% fetal bovine serum, 1% L-glutamine, and 1% penicillin/streptomycin at 37 °C in a 5% CO2 atmosphere. […] After incubation, cell viability was assessed using the XTT assay. The results are expressed as a percentage of viable cells compared with untreated cells. The cytotoxic concentration 50 (CC50) was calculated using GraphPad Prism 7.0 software. […] The assay was performed at least three times in triplicate. The selectivity index (SI) was calculated as SI = cells CC50/trophozoites IC50.

[2] = In vitro cytotoxicity assay (XTT), Caco-2; conditions: human
Method: as §1, §2

HT29 cells = experiment: In vitro cytotoxicity assay (XTT), HT29; conditions: CC50 HT29 / IC50 trophozoites
Method: as §1, §2

[3] = In vitro cytotoxicity assay (XTT), HT29; conditions: human
Method: as §1, §2

[4] = test system: T. vaginalis Donne ATCC 30236 trophozoites; experiment: Determination of IC50 values (anti-Trichomonas activity, trypan blue and XTT); assay type: cell-based, Trichomonas vaginalis; conditions: for pIC50: Trichomonas vaginalis, ATCC30236, T. vaginalis Donne ATCC 30236, 24 h, 37 °C, 0–10 µM, trypan blue and XTT, read-out: IC50 (viability of T. vaginalis trophozoites); for Enhancement of trichomonacidal effect in relation to MTZ: ratio of IC50 values vs MTZ; for Enhancement of trichomonacidal effect in relation to NTZ: ratio of IC50 values vs NTZ
Method: Figure 2 Determination of the IC50 values of AGR compounds on the culture of Trichomonas vaginalis. […] The trophozoites were incubated in the presence of the compounds for 24 h at 37 °C with different concentrations of each compound. Values represent the mean ± standard deviation of three independent experiments.
The T. vaginalis Donne ATCC 30236 strain was acquired from the ATCC (American Type Culture Collection). It was cultured axenically in trypticase–yeast extract–maltose medium (TYM, at pH 6.0) supplemented with 10% sterile horse serum (previously inactivated at 56 °C for 30 min) and incubated at 37 °C [42]. The trophozoites were analyzed via motility, morphology, and trypan blue dye exclusion assays (0.4%) under an optical microscope with a magnification of 40×. The parasites were cultured for 24 h at 37 °C, corresponding to the logarithmic growth phase, and were used for anti-Trichomonas assays.
The anti-Trichomonas activity was evaluated in 1.5 mL tubes, where 2.6 × 10^5 trophozoites/mL was treated with increasing concentrations (0–10 µM) of the selected compounds. The tubes were incubated at 37 °C for 24 h. Then the trypan blue dye exclusion and XTT assay tests were used for evaluations of cell viability, as previously described. […] The IC50 values were calculated using GraphPad Prism 8.0 Inc. software, Version 8.0.2 (263) (San Diego, CA, USA).

[5] = test system: T. vaginalis trophozoites (metabolic gene transcripts); experiment: Relative gene expression of T. vaginalis in presence of compounds (RT-qPCR, 2^-ΔΔCt, PK reference gene); assay type: cell-based, Trichomonas vaginalis; conditions: 24 h at IC50 concentration; for Increase of PFK transcripts: vs untreated control
Method: The main carbon and energy source for T. vaginalis is the fermentative carbohydrate metabolism. We sought to determine whether the death of T. vaginalis is related to changes in its metabolic genes. A gene expression assay based on RT-qPCR was performed to evaluate the transcription levels of several genes in T. vaginalis trophozoites that were incubated for 24 h at the IC50 concentration for each compound.
To evaluate the expression levels of the genes involved in the metabolism of T. vaginalis in the absence and presence of trichomonacidal compounds, the genetic expression levels of 15 genes were analyzed by means of real-time RT-qPCR. To this end, genes encoding enzymes involved in essential metabolic pathways for cell survival, such as glycolysis, the pentose phosphate pathway, structural proteins, and redox maintenance, were identified using the GenBank database (https://www.ncbi.nlm.nih.gov/genbank/ accessed on 15 January 2023) (Table 3).
The total RNA from trophozoites in the absence and presence of the compound was extracted using TRIzol® Reagent (Invitrogen, Carlsbad, CA, USA) according to the manufacturer’s instructions. The quality of RNA was assessed at 260/280 nm, and the integrity was assessed by 2.0% (w/v) agarose gel electrophoresis. For synthesis of the cDNA, samples were treated with 1 U of DNAase I enzyme (Thermo Fisher Scientific, Waltham, MA, USA). cDNA was synthesized using the primers Oligo (dT) 18 (Thermo Fisher Scientific) and RevertAid reverse transcriptase (Thermo Fisher Scientific). All synthesized cDNAs were quantified and stored at −70 °C until use.
We evaluated the expression levels of genes involved in the metabolism of T. vaginalis trophozoites in the absence and presence of trichomonacidal compounds. The amplification of the specific PCR products and the specificity of the primers of the genes proposed in this study (Table 4) were determined using the Fast SYBR® Green Master Mix kit (Applied Biosystems, Foster City, CA, USA) in the StepOnePlusTM Real-Time PCR Systems platform (Life Technologies, Foster City, CA, USA), which was carried out according to the method previously reported by Gutiérrez-Cardona et al..
The relative changes in the expression levels of the target genes (PK, CK, PFK, ALDO, TPI, GAPDH, ENOL, G6PD, 6PGDH, TKT, TALDO, PFOR, NADH, ACT, and TUB) were analyzed by the 2^−ΔΔCt method, using the PK reference gene for normalization. The curve was fitted with GraphPad Prism 8 software (GraphPad Software Inc., La Jolla, CA, USA), and statistical analysis was performed. ANOVA and the Tukey–Kramer test were used to evaluate the relative change in expression after normalization. Three replicates were included for each treatment, and all reactions were performed in triplicate.

[6] = Caco-2, CaCo-2 CC50, 48 h, 0–500 µM, XTT
[7] = HT29 cells, HT29 CC50, 48 h, 0–500 µM, XTT

Structure (SMILES)	Effect on kinetic growth curve of T. vaginalis [1]	CaCo-2 SI (CC50/IC50) (CaCo-2 cells)	CC50 at 48 h [2, 6] [µM]	HT29 SI (CC50/IC50) (HT29 cells)	CC50 at 48 h [3, 7] [µM]	pIC50 [4]	Enhancement of trichomonacidal effect in relation to MTZ [4]	Enhancement of trichomonacidal effect in relation to NTZ [4] [fold]	Effect on ALDO expression [5]	Effect on GAPDH expression [5]	Expression of NADH oxidase gene [5]	Overexpression of PFOR [5] [fold]	Increase of PFK transcripts [5] [fold]	Decrease in the expression of PFOR [5] [fold]	Effect on PFK expression [5]	CC50 at 48 h ([2]; Caco-2) [µM]	CC50 at 48 h [3] [µM]
Cc1ncc([N+](=O)[O-])n1CCOC(=O)Nc1ccccc1 [AGR-2]	more significant delay in the logarithmic and stationary phases	>1000	560	>1000	730	6.40	8 fold	16	reduced	reduced	decreased	7.5	1.5	–	–	–	–
Cc1ncc([N+](=O)[O-])n1CCOC(=O)Nc1ccc(F)cc1 [AGR-4]	more significant delay in the logarithmic and stationary phases; also recorded: inhibited the growth of the parasite to a greater degree	531.2	510	617	593	6.02	–	–	reduced	reduced	decreased	–	–	1.5	negatively affected	–	–
Cc1ncc([N+](=O)[O-])n1CCO [MTZ, metronidazole, reference compound]	–	–	–	–	–	5.51	–	–	–	–	–	–	–	–	–	–	–
Cc1ncc([N+](=O)[O-])n1CCOC(=O)NC1CCCCC1 [AGR-1]	more significant delay in the logarithmic and stationary phases	970.0	650	794	532	6.17	fivefold	10	increased	–	decreased	11	1.2	–	–	–	–
CC(=O)Oc1ccccc1C(=O)Nc1ncc([N+](=O)[O-])s1 [NTZ, nitazoxanide, reference compound]	–	87.6	–	95.7	–	5.18	–	–	–	–	–	–	–	–	–	–	–
Cc1ncc([N+](=O)[O-])n1CCOC(=O)Nc1ccc([N+](=O)[O-])cc1 [AGR-5]	–	400	–	386	–	5.84	–	–	–	–	decreased	2.5	–	–	negatively affected	580	560
Cc1ncc([N+](=O)[O-])n1CCOC(=O)Nc1ccc(Cl)cc1 [AGR-3]	–	817.1	523	>1000	660	6.19	fivefold	10	reduced	reduced	–	7.5	–	–	negatively affected	–	–

Source: article PMC11173628, “Imidazole Carbamates as a Promising Alternative for Treating Trichomoniasis: In Vitro Effects on the Growth and Gene Expression of Trichomonas vaginalis” (Molecules, 2024)
